The supplement of paper PMC10307832

Experiments:
Assay in all cases: relative viability (nuclei count vs DMSO), 5 days (fraction); higher = more cells survive
[1] = system: HCC-78
In short: (§1)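 Values are medians from duplicate plates. Each reflects relative viability, defined as the nuclei count of treated wells over that of vehicle wells. Lung cancer cell lines in 1536-well plates were pin-tool dosed one day after seeding with one drug alone or with a fixed anchor-drug dose plus five library-drug doses (not always all listed) in √10 steps, then fixed, stained and imaged at 4× after 5 days.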

[2] = system: NCI-H1975
In short: as §1

[3] = system: LXF-289
In short: as §1

[4] = system: PC-3 [JPC-3]
In short: as §1

[5] = system: LC-2-ad
In short: as §1

[6] = system: LCLC-97TM1
In short: as §1

[7] = system: NCI-H838
In short: as §1

[8] = system: NCI-H1651
In short: as §1

[9] = system: SK-MES-1
In short: as §1

[10] = system: LK-2
In short: as §1

[11] = system: ChaGo-K-1
In short: as §1

[12] = system: NCI-H2087
In short: as §1

[13] = system: NCI-H596
In short: as §1

[14] = system: LU99A
In short: as §1

[15] = system: NCI-H1355
In short: as §1

[16] = system: BEN
In short: as §1

[17] = system: NCI-H1666
In short: as §1

[18] = system: NCI-H1944
In short: as §1

## CC(=O)O[C@@]12CO[C@@H]1C[C@H](O)[C@@]1(C)C(=O)[C@H](O)C3=C(C)[C@@H](OC(=O)[C@H](O)[C@@H](NC(=O)OC(C)(C)C)c4ccccc4)C[C@@](O)([C@@H](OC(=O)c4ccccc4)[C@H]21)C3(C)C [Docetaxel] + CC1(C)CCC(c2ccc(Cl)cc2)=C(CN2CCN(c3ccc(C(=O)NS(=O)(=O)c4ccc(N[C@H](CCN5CCOCC5)CSc5ccccc5)c(S(=O)(=O)C(F)(F)F)c4)cc3)CC2)C1 [Navitoclax] (partner 0.5 µM)
[1]; first compound 0.0002 µM
  relative viability: 0.75
[1]; first compound 0.000632 µM
  relative viability: 0.455
[1]; first compound 0.002 µM
  relative viability: 0.244
[1]; first compound 0.006325 µM
  relative viability: 0.242
[1]; first compound 0.02 µM
  relative viability: 0.158
[2]; first compound 0.0002 µM
  relative viability: 1.1
[2]; first compound 0.000632 µM
  relative viability: 1.11
[2]; first compound 0.002 µM
  relative viability: 0.276
[2]; first compound 0.006325 µM
  relative viability: 0.252
[2]; first compound 0.02 µM
  relative viability: 0.156
[3]; first compound 0.0002 µM
  relative viability: 0.96
[3]; first compound 0.000632 µM
  relative viability: 0.796
[3]; first compound 0.002 µM
  relative viability: 0.585
[3]; first compound 0.006325 µM
  relative viability: 0.142
[3]; first compound 0.02 µM
  relative viability: 0.0718
[4]; first compound 0.0002 µM
  relative viability: 0.82
[4]; first compound 0.000632 µM
  relative viability: 0.721
[4]; first compound 0.002 µM
  relative viability: 0.527
[4]; first compound 0.006325 µM
  relative viability: 0.229
[4]; first compound 0.02 µM
  relative viability: 0.202
[5]; first compound 0.0002 µM
  relative viability: 0.237
[5]; first compound 0.000632 µM
  relative viability: 0.18
[5]; first compound 0.002 µM
  relative viability: 0.114
[5]; first compound 0.006325 µM
  relative viability: 0.0942
[5]; first compound 0.02 µM
  relative viability: 0.0914
[6]; first compound 0.000632 µM
  relative viability: 0.498
[6]; first compound 0.002 µM
  relative viability: 0.145
[6]; first compound 0.006325 µM
  relative viability: 0.168
[6]; first compound 0.02 µM
  relative viability: 0.11
[7]; first compound 0.0002 µM
  relative viability: 1.15
[7]; first compound 0.000632 µM
  relative viability: 1.22
[7]; first compound 0.002 µM
  relative viability: 0.29
[7]; first compound 0.006325 µM
  relative viability: 0.176
[7]; first compound 0.02 µM
  relative viability: 0.135
[8]; first compound 0.0002 µM
  relative viability: 1.18
[8]; first compound 0.000632 µM
  relative viability: 0.968
[8]; first compound 0.002 µM
  relative viability: 0.233
[8]; first compound 0.006325 µM
  relative viability: 0.0921
[8]; first compound 0.02 µM
  relative viability: 0.0627
[9]; first compound 0.0002 µM
  relative viability: 1.19
[9]; first compound 0.000632 µM
  relative viability: 0.692
[9]; first compound 0.002 µM
  relative viability: 0.251
[9]; first compound 0.006325 µM
  relative viability: 0.122
[9]; first compound 0.02 µM
  relative viability: 0.108
[10]; first compound 0.0002 µM
  relative viability: 0.805
[10]; first compound 0.000632 µM
  relative viability: 0.556
[10]; first compound 0.002 µM
  relative viability: 0.172
[10]; first compound 0.006325 µM
  relative viability: 0.133
[10]; first compound 0.02 µM
  relative viability: 0.145
[11]; first compound 0.0002 µM
  relative viability: 1.02
[11]; first compound 0.000632 µM
  relative viability: 0.597
[11]; first compound 0.002 µM
  relative viability: 0.485
[11]; first compound 0.006325 µM
  relative viability: 0.429
[11]; first compound 0.02 µM
  relative viability: 0.232
[12]; first compound 0.0002 µM
  relative viability: 0.964
[12]; first compound 0.000632 µM
  relative viability: 0.446
[12]; first compound 0.002 µM
  relative viability: 0.276
[12]; first compound 0.006325 µM
  relative viability: 0.154
[12]; first compound 0.02 µM
  relative viability: 0.129
[13]; first compound 0.0002 µM
  relative viability: 0.882
[13]; first compound 0.000632 µM
  relative viability: 0.799
[13]; first compound 0.002 µM
  relative viability: 0.565
[13]; first compound 0.006325 µM
  relative viability: 0.477
[13]; first compound 0.02 µM
  relative viability: 0.208
[14]; first compound 0.0002 µM
  relative viability: 0.865
[14]; first compound 0.000632 µM
  relative viability: 0.533
[14]; first compound 0.002 µM
  relative viability: 0.277
[14]; first compound 0.006325 µM
  relative viability: 0.201
[14]; first compound 0.02 µM
  relative viability: 0.148
[15]; first compound 0.0002 µM
  relative viability: 0.901
[15]; first compound 0.000632 µM
  relative viability: 0.77
[15]; first compound 0.002 µM
  relative viability: 0.372
[15]; first compound 0.006325 µM
  relative viability: 0.272
[15]; first compound 0.02 µM
  relative viability: 0.175
[16]; first compound 0.0002 µM
  relative viability: 0.0647
[16]; first compound 0.000632 µM
  relative viability: 0.25
[16]; first compound 0.002 µM
  relative viability: 0.0618
[16]; first compound 0.006325 µM
  relative viability: 0.0423
[16]; first compound 0.02 µM
  relative viability: 0.0454
[17]; first compound 0.0002 µM
  relative viability: 0.646
[17]; first compound 0.000632 µM
  relative viability: 0.565
[17]; first compound 0.002 µM
  relative viability: 0.354
[17]; first compound 0.006325 µM
  relative viability: 0.302
[17]; first compound 0.02 µM
  relative viability: 0.186
[18]; first compound 0.0002 µM
  relative viability: 1.07
[18]; first compound 0.000632 µM
  relative viability: 1.05
[18]; first compound 0.002 µM
  relative viability: 0.942
[18]; first compound 0.006325 µM
  relative viability: 0.297
[18]; first compound 0.02 µM
  relative viability: 0.155
